Measurements: ChEMBL document CHEMBL3739423, “Synthesis, biological evaluation and mechanism study of a class of benzylideneindanone derivatives as novel anticancer agents” (Medchemcomm, 2015)
Active and inactive are the calls of the source. The calls are words filed in the database; no cut-off is given here.

What was measured:
HeLa [1] = test: Antiproliferative activity against human HeLa cells after 48 hrs by MTT assay; format: functional
[2] = Antiproliferative activity against human PC3 cells after 48 hrs by MTT assay; format: functional; settings: PC-3, 48 h
MDA-MB-231 = test: Antiproliferative activity against human MDA-MB-231 cells after 48 hrs by MTT assay; format: functional; settings: MDA-MB-231, 48 h
A549 = test: Antiproliferative activity against human A549 cells after 48 hrs by MTT assay; format: functional; settings: A549, 48 h
[3] = Antiproliferative activity against human Bel7402 cells after 48 hrs by MTT assay; format: functional; settings: Bel-7402, 48 h
Tubulin = test: Inhibition of tubulin polymerization (unknown origin) by fluorescence analysis; format: protein-complex assay, Homo sapiens
HeLa [4] = test: Induction of apoptosis in human HeLa cells assessed as late apoptotic cells at 0.5 uM after 48 hrs by annexin-v-PI staining based flow cytometry (reference value: 0.08%); format: functional
HeLa [5] = test: Induction of apoptosis in human HeLa cells assessed as early apoptotic cells at 0.1 uM after 48 hrs by annexin-v-PI staining based flow cytometry (reference value: 1.44%); format: functional
HeLa [6] = test: Cell cycle arrest in human HeLa cells assessed as accumulation at G2/M phase at 0.05 microM after 48 hrs by flow cytometry; format: functional
HeLa [7] = test: Cell cycle arrest in human HeLa cells assessed as accumulation at G2/M phase at 0.5 microM after 48 hrs by flow cytometry; format: functional
HeLa [8] = test: Induction of microtubule disruption in human HeLa cells assessed as destabilized microtubule network at 0.05,0.1, 0.5 microM after 48 hrs by hoechst-33342-staining based confocal microscopy analysis; format: cell-based
HeLa [9] = test: Induction of apoptosis in human HeLa cells assessed as late necrotic cells at 0.1 uM after 48 hrs by annexin-v-PI staining based flow cytometry (reference value: 0.09%); format: functional
HeLa [10] = test: Induction of apoptosis in human HeLa cells assessed as late necrotic cells at 0.05 uM after 48 hrs by annexin-v-PI staining based flow cytometry (reference value: 0.09%); format: functional
HeLa [11] = test: Induction of apoptosis in human HeLa cells assessed as late necrotic cells at 0.5 uM after 48 hrs by annexin-v-PI staining based flow cytometry (reference value: 0.09%); format: functional
HeLa [12] = test: Cell cycle arrest in human HeLa cells assessed as accumulation at G2/M phase at 0.1 microM after 48 hrs by flow cytometry; format: functional
HeLa [13] = test: Induction of apoptosis in human HeLa cells assessed as early apoptotic cells at 0.05 uM after 48 hrs by annexin-v-PI staining based flow cytometry (reference value: 1.44%); format: functional
HeLa [14] = test: Induction of apoptosis in human HeLa cells assessed as viable cells at 0.5 uM after 48 hrs by annexin-v-PI staining based flow cytometry (reference value: 98.4%); format: functional; settings: read-out: Activity
HeLa [15] = test: Induction of microtubule disruption in human HeLa cells assessed as microtubule heavily shrunk around centre of cells at 0.5 microM after 48 hrs by hoechst-33342-staining based confocal microscopy analysis; format: cell-based
HeLa [16] = test: Cell cycle arrest in human HeLa cells assessed as accumulation at G2/M phase after 48 hrs by flow cytometry; format: functional, cell-based
HeLa [17] = test: Induction of apoptosis in human HeLa cells assessed as early apoptotic cells at 0.5 uM after 48 hrs by annexin-v-PI staining based flow cytometry (reference value: 1.44%); format: functional
HeLa [18] = test: Induction of apoptosis in human HeLa cells assessed as late apoptotic cells at 0.1 uM after 48 hrs by annexin-v-PI staining based flow cytometry (reference value: 0.08%); format: functional
HeLa [19] = test: Induction of microtubule disruption in human HeLa cells assessed as irregular cytoplasm and chromosomes at 0.5 microM after 48 hrs by hoechst-33342-staining based confocal microscopy analysis; format: cell-based
HeLa [20] = test: Induction of apoptosis in human HeLa cells assessed as late apoptotic cells at 0.05 uM after 48 hrs by annexin-v-PI staining based flow cytometry (reference value: 0.08%); format: functional
HeLa [21] = test: Induction of apoptosis in human HeLa cells assessed as viable cells at 0.1 uM after 48 hrs by annexin-v-PI staining based flow cytometry (reference value: 98.4%); format: functional; settings: read-out: Activity
HeLa [22] = test: Induction of apoptosis in human HeLa cells assessed as viable cells at 0.05 uM after 48 hrs by annexin-v-PI staining based flow cytometry (reference value: 98.4%); format: functional; settings: read-out: Activity
HeLa [23] = test: Induction of apoptosis in human HeLa cells after 48 hrs by annexin-v-PI staining based flow cytometry; format: functional, cell-based

In the case of COc1cc2c(cc1O)C(=O)/C(=C/c1cc(OC)c(OC)c(OC)c1)C2, the GI50 (HeLa [1]) is reported as > 10 µM, the GI50 [2] is reported as > 10 µM and the GI50 (MDA-MB-231) is reported as > 10 µM. The GI50 (A549) was > 10 µM and the GI50 [3] was > 10 µM.

For COc1cc2c(cc1OC)C(=O)/C(=C/c1ccc(OC)c(OC)c1OC)C2, the GI50 (HeLa [1]) was > 10 µM, the GI50 [2] was > 10 µM and the GI50 (MDA-MB-231) was > 10 µM. The GI50 (A549) was > 10 µM and the GI50 [3] was > 10 µM.

In the case of COc1cc2c(cc1OC)C(=O)/C(=C/c1cc(OC)c(OC)c(OC)c1)C2, the GI50 (HeLa [1]) is reported as > 10 µM, the GI50 [2] is reported as > 10 µM and the GI50 (MDA-MB-231) is reported as > 10 µM. For the same molecule, the GI50 (A549) was > 10 µM and the GI50 [3] was > 10 µM.

COc1ccc(/C=C2\Cc3c(cc(OC)c(OC)c3OC)C2=O)cc1N gave a GI50 (HeLa [1]) of 0.169 µM, an IC50 (Tubulin) of 8.64 µM and a GI50 [2] of 0.456 µM. The GI50 (MDA-MB-231) was 0.485 µM, the GI50 (A549) was 0.212 µM and the GI50 [3] was 0.45 µM.

In the case of COc1ccc(/C=C2\Cc3cc(OC)c(OC)c(OC)c3C2=O)cc1[N+](=O)[O-], the GI50 (HeLa [1]) is reported as > 10 µM, the GI50 [2] is reported as > 10 µM and the GI50 (MDA-MB-231) is reported as > 10 µM. The GI50 (A549) was > 10 µM and the GI50 [3] was > 10 µM.

Work on COc1ccc(/C=C\c2cc(OC)c(OC)c(OC)c2)cc1O [COMBRETASTATIN A4] yielded a GI50 (HeLa [1]) of 0.0028 µM, a GI50 [2] of 0.014 µM and a GI50 (MDA-MB-231) of 0.021 µM. For the same molecule, the GI50 (A549) was 0.018 µM and the GI50 [3] was 0.012 µM.

In the case of COc1ccc(/C=C2\CCc3c(cc(OC)c(OC)c3OC)C2=O)cc1, the GI50 (HeLa [1]) is reported as 12.4 µM, the GI50 [2] is reported as 19.6 µM and the GI50 (MDA-MB-231) is reported as 38.7 µM. It also gave a GI50 (A549) of 18.9 µM and a GI50 [3] of 25.4 µM.

For COc1cc(/C=C2\Cc3c(cc(OC)c(OC)c3OC)C2=O)cc(OC)c1OC, the GI50 (HeLa [1]) was 2.37 µM, the GI50 [2] was 4.99 µM and the GI50 (MDA-MB-231) was 5.84 µM. The GI50 (A549) was 2.79 µM and the GI50 [3] was 1.58 µM.

Work on COc1cc2c(cc1O)C(=O)/C(=C/c1ccc(OC)c(OC)c1OC)C2 yielded a GI50 (HeLa [1]) of 1.59 µM, a GI50 [2] of 3.14 µM and a GI50 (MDA-MB-231) of 2.41 µM. It also gave a GI50 (A549) of 3.42 µM and a GI50 [3] of 9.65 µM.

Molecule COc1ccc(/C=C2\Cc3c(cc(OC)c(OC)c3OC)C2=O)cc1[N+](=O)[O-] has a GI50 (HeLa [1]) of 0.79 µM, a GI50 [2] of 1.56 µM and a GI50 (MDA-MB-231) of 3.49 µM. The GI50 (A549) was 0.77 µM and the GI50 [3] was 0.95 µM.

Molecule COc1ccc(/C=C2\Cc3c(cc(OC)c(OC)c3OC)C2=O)cc1F has a GI50 (HeLa [1]) of 0.258 µM, an IC50 (Tubulin) of 8.92 µM and a GI50 [2] of 0.277 µM. It also gave a GI50 (MDA-MB-231) of 0.521 µM, a GI50 (A549) of 0.298 µM and a GI50 [3] of 0.491 µM.

For COc1ccc(/C=C2\Cc3cc(OC)c(OC)c(OC)c3C2=O)cc1N, the GI50 (HeLa [1]) was > 10 µM, the GI50 [2] was > 10 µM and the GI50 (MDA-MB-231) was > 10 µM. The GI50 (A549) was > 10 µM and the GI50 [3] was > 10 µM.

With COc1ccc(/C=C2\Cc3c(cc(OC)c(OC)c3OC)C2=O)cc1O the GI50 (HeLa [1]) was 0.172 µM, the Activity (HeLa [4]) was 12.6% and the IC50 (Tubulin) was 7.56 µM. It also gave an Activity (HeLa [5]) of 19%, an Activity (HeLa [6]) of 23.2% and an Activity (HeLa [7]) of 46.1%. For the same molecule, the Activity (HeLa [8]) was “Active”, the GI50 [2] was 0.213 µM and the GI50 (MDA-MB-231) was 0.57 µM. The Activity (HeLa [9]) was 1.03%, the Activity (HeLa [10]) was 0.38% and the Activity (HeLa [11]) was 4.4%. For the same molecule, the Activity (HeLa [12]) was 35.2%, the Activity (HeLa [13]) was 6.98% and the viability at 0.5 µM (HeLa [14]) was 40.6%. For the same molecule, the Activity (HeLa [15]) was “Active”, the Activity (HeLa [16]) was “Dose-dependent effect” and the Activity (HeLa [17]) was 42.4%. For the same molecule, the Activity (HeLa [18]) was 2.57%, the GI50 (A549) was 0.249 µM and the Activity (HeLa [19]) was “Active”. It also gave an Activity (HeLa [20]) of 0.82%, a viability at 0.1 µM (HeLa [21]) of 77.4% and a viability at 0.05 µM (HeLa [22]) of 91.8%. The Activity (HeLa [23]) was “Dose-dependent effect” and the GI50 [3] was 0.307 µM.

Molecule COc1ccc(/C=C2\Cc3c(cc(OC)c(OC)c3OC)C2=O)cc1 has a GI50 (HeLa [1]) of 0.485 µM, an IC50 (Tubulin) of 9.62 µM and a GI50 [2] of 0.75 µM. It also gave a GI50 (MDA-MB-231) of 0.429 µM, a GI50 (A549) of 0.273 µM and a GI50 [3] of 0.56 µM.

For COc1cc(/C=C2\Cc3cc(OC)c(OC)c(OC)c3C2=O)cc(OC)c1OC, the GI50 (HeLa [1]) was > 10 µM, the GI50 [2] was > 10 µM and the GI50 (MDA-MB-231) was > 10 µM. For the same molecule, the GI50 (A549) was > 10 µM and the GI50 [3] was > 10 µM.

In the case of COc1ccc(/C=C2\CCc3c(cc(OC)c(OC)c3OC)C2=O)cc1F, the GI50 (HeLa [1]) is reported as 10.2 µM, the GI50 [2] is reported as 27.6 µM and the GI50 (MDA-MB-231) is reported as 29.4 µM. For the same molecule, the GI50 (A549) was 15.4 µM and the GI50 [3] was 19.3 µM.

With COc1ccc(/C=C2\Cc3cc(OC)c(OC)c(OC)c3C2=O)cc1O the GI50 (HeLa [1]) was > 10 µM, the GI50 [2] was > 10 µM and the GI50 (MDA-MB-231) was > 10 µM. For the same molecule, the GI50 (A549) was > 10 µM and the GI50 [3] was > 10 µM.

In the case of COc1cc2c(c(OC)c1OC)C/C(=C\c1cc(OC)c(OC)c(OC)c1OC)C2=O, the GI50 (HeLa [1]) is reported as > 10 µM, the GI50 [2] is reported as > 10 µM and the GI50 (MDA-MB-231) is reported as > 10 µM. The GI50 (A549) was > 10 µM and the GI50 [3] was > 10 µM.

For COc1ccc(/C=C2\Cc3cc(OC)c(OC)c(OC)c3C2=O)cc1, the GI50 (HeLa [1]) was > 10 µM, the GI50 [2] was > 10 µM and the GI50 (MDA-MB-231) was > 10 µM. The GI50 (A549) was > 10 µM and the GI50 [3] was > 10 µM.

Molecule COc1ccc(/C=C2\Cc3c(cc(OC)c(OC)c3OC)C2=O)cc1OC has a GI50 (HeLa [1]) of 8.56 µM, a GI50 [2] of 7.47 µM and a GI50 (MDA-MB-231) of 9.85 µM. It also gave a GI50 (A549) of 9.74 µM and a GI50 [3] of 10.5 µM.

Molecule COc1ccc(/C=C2\Cc3c(cc(OC)c(OC)c3OC)C2=O)cc1Br has a GI50 (HeLa [1]) of 0.356 µM, an IC50 (Tubulin) of 9.05 µM and a GI50 [2] of 0.389 µM. The GI50 (MDA-MB-231) was 0.678 µM, the GI50 (A549) was 0.41 µM and the GI50 [3] was 0.563 µM.
